Data from patent US12465609B2, “Methods of treating patients suffering from a disease condition or disorder that is associated with an increased glutamate level” (veriNOS operations GmbH, priority 2022, dated 2025).

How the values were obtained:
[1] = test system: extracellular brain glutamate level; assay: Brain microdialysis, extracellular cerebral glutamate levels in TBI patients; assay type: in vivo, human
Procedure: To monitor the metabolic condition of the patients, extracellular brain glutamate and lactate levels were measured. In more detail, the extracellular intracerebral glutamate and lactate levels measured here is the glutamate or lactate level in brain extracellular fluid (ECF). […] The measurements of the glutamate and lactate levels was carried out using established brain microdialysis (MD) methodology as described, for example, by Chamoun et al, example. Role of extracellular glutamate measured by cerebral microdialysis in severe traumatic brain injury. J Neurosurg. 2010 September; 113(3): 564-570.
The microdialysis (MD) equipment was obtained from M Dialysis AB, Stockholm, Sweden, see www.mdialysis.com. The following equipment was used. • Cerebral MD catheters: CMA 70 • CMA 70 bolt catheter • CMA 71 high cut-off cerebral catheter • Pumps: CMA106=fixed flow rate, CMA107=flexible flow rate • Perfusion solution: Cerebral: Perfusion fluid CNS • Analyzers: CMA 600, ISCUS, ISCUSflex Time Point of MD Catheter Insertion • Aim: Obtain stable baseline values before infusing study drug • Ideal: By 14 hours after TBI or 4 hours before study drug infusion to allow for tissue adaptation, usually lasting 1-4 hours • Compromise: As soon as possible, within 4 hours after beginning study drug infusion Site of Cerebral MD Catheter Insertion • Aim: Monitor metabolic changes close to structural damage visible on routine CT scan • Contusion: Close to the contusion • Mixed lesions: Predominantly injured hemisphere • With bolt system: Right or left frontal lobe • Without bolt system: Right or left frontal/temporal/parietal area • If possible cerebral MD catheter should be placed ipsilateral to the ICP probe • Special care should be taken to avoid inducing injury to pre- and postcentral cortex • The position of the MD probe and the position of the ICP probe in the eCRF should be indicated.
The cerebral glutamate and lactate levels were recorded every 1 h up to 5 days after the start of the infusion. Absolute values were be summarized per treatment group and for each time point by means of descriptive statistics. The 95% confidence intervals for the mean were calculated (normal approximation).
For the analysis of the metabolic state, it was considered that under normal (physiological) conditions glutamate is maintained at low levels (micromolar) in the extracellular space (<2 μmol/L) and in plasma (50-100 μmol/L) to avoid excessive glutamate receptor activation. Within the different intracellular compartments glutamate is present in higher amounts (5-15 millimolar). In brain microdialysis, glutamate levels exceeding 10 μmol/L are considered elevated, higher glutamate levels are associated with worse outcome. In addition to the absolute levels, dynamic changes are also important in interpreting underlying pathology. In brain microdialysis and blood, lactate levels exceeding 2.5 millimol/L are considered pathologically elevated, reflecting insufficient metabolic/energetic stability which is further aggravated by insufficient oxygen supply.

[2] = test system: C57 BL/6 mice, controlled cortical impact (CCI) model; assay: Controlled cortical impact (CCI) model in mice, intracranial pressure (ICP); assay type: in vivo; conditions: CCI mice, analogous treatment
Excerpt: The primary objective of this experiment was the characterization of the intracranial pressure (ICP) reduction by VAS3384 in the controlled cortical impact (CCI) model in mice. The secondary objective was characterization of the neuroprotective effect (reduction of the lesion volume) of VAS3384 in the controlled cortical impact model in mice.
• Test compound A • Denomination: VAS 3384 • Active agent: 4-Amino-4-desoxy-7,8-dihydrobiopterin-dihydrochloride, obtained from Schircks Laboratories, Bauma, Switzerland • Detailed composition: VAS 3384 dissolved in sodium phosphate buffer (PBS) pH 7.4 • Formulation method: 15 mg of the test compound (VAS 3384) are dissolved in 500 μl PBS, pH 7.4. The solution is neutralized with 72 μl 1 N NaOH and filled up with 428 μl water (check pH). • Final concentration of active agent: 15 mg/ml • Appearance: yellow, clear solution • Storage (solid test compound): −20° C. • Dose applied: 560 mg/kg or 37.3 ml/kg • Way of administration: intravenous injection/infusion • Negative control • Denomination: sodium phosphate buffer (PBS) • Active agent: none • Detailed composition: Na2HPO4, NaH2PO4, 100 mM pH 7.4 • Formulation method: ready for use • Final concentration of active agent: not applicable • Appearance: colourless, clear solution • Expiration date: 3 months after preparation • Volume applied: 37.3 ml/kg • Way of administration: intravenous injection/infusion Experimental Procedure
The animals (C57 BL/6 mice), under Dormicum/Methidomidin/Fentanyl-narcosis were fixed in a stereo tactical frame and the scalp was opened with a cut along the median. The skull bone
was laid open and disinfected with H2O2. A hole of approx. 1.2 mm diameter was then drilled into the skull (Bregma 0.4-0.4 mm). The ICP-probe was introduced through this hole. The V. jugularis was be laid open and a catheter introduced. This catheter was introduced in the neck subcutaneously and fixed on the cap of the cage with a protective spiral of metal. This setup permitted an infusion in awake animals. The skull was opened above of the right cortex and mechanically traumatized (CCI model). The skullcap was then closed with the removed bone.
Mice 1-9: 10 minutes after the trauma the animals got an intravenous bolus injection of 20 mg/kg VAS 3384 (=1.33 ml/kg) followed by an infusion of 1.5 mg/kg/min (=100 μl/kg/min) VAS 3384 over six hours to maintain the dose. After six hours, after termination of the infusion, and after 24 hours the ICP of the animals was measured. After 24 hours the animals were sacrificed, the brains dissected and the lesion volume determined by Nissl's method.
Mice 10-18: 10 minutes after the trauma the animals received an intravenous bolus injection of 1.33 ml/kg PBS followed by an infusion of 100 μl/kg/min PBS over six hours. After six hours, after the termination of the infusion, and after 24 hours the ICP of the animals was measured.
At the end of the observation period animals were sacrificed by cervical dislocation in deep halothane anaesthesia. The brains were carefully removed, frozen in powdered dry ice, and stored at −20° C. until further use. Ten μm coronal sections were prepared every 500 μm on a cryostat (CryoStar HM 560, Microm, Walldorf, Germany) and stained with cresyl violet. Sections were photographed with a digital camera system. The contusion area, the area of the non-traumatized tissue of the ipsilateral hemisphere, and the area of the contralateral hemisphere were determined on the digitized images with a standard image analysis software (Optimate 6.51, Media Cybernetics, Silver Spring, MD, USA) by an investigator blinded to the treatment of the animals. In order to correct for the swelling of contused tissue, the contusion area was calculated by subtracting the area of the non-traumatized tissue of the ipsilateral hemisphere from the area of the contralateral hemisphere. […]

C[C@H](O)[C@H](O)C1CNc2nc(N)nc(N)c2N1 (mixture of isomers) [Ronopterin, 4-Amino-(6R,S)-5,6,7,8-tetrahydro-L-biopterin]
extracellular cerebral glutamate level ([1]; 18 to 39 years, infusion >12 hours after TBI, majority of patients, essentially the same as placebo (FIG. 5E)): < 10 µmol/L
extracellular cerebral glutamate level ([1]; 18 to 39 years, infusion ≤12 h after TBI, all patients (FIG. 5B)): < 10 µmol/L
extracellular cerebral glutamate level ([1]; 40 to 60 years, infusion >12 hours after TBI, majority of the patients (FIG. 6B)): < 10 µmol/L
extracellular cerebral glutamate level ([1]; 40 to 60 years, infusion ≤12 h after TBI, no placebo group, not all patients <10 μmol/L (FIG. 6A)): partially lowered brain glutamate levels
extracellular brain glutamate levels after infusion ([1]; TBI patients, within 12 hours after start of the administration): less than 10 μmol/L
passage of the human blood brain barrier ([1]; inferred from Example 4): passes the human blood brain barrier
extracellular cerebral glutamate level ([1]; patients aged 18 to 39 years, all times to infusion, all patients, up to 108 hours (FIG. 4B)): < 10 µmol/L
extracellular cerebral glutamate level ([1]; patients aged 40 to 60 years, all times to infusion, majority of patients (FIG. 4E)): < 10 µmol/L
time ICP remained lowered after the treatment [2]: at least 18 h
